Test results as given in ChEMBL document CHEMBL1140941 (J Med Chem, 2009).
Activity calls are given as the source filed them. No cut-off for these calls is given here.

What was measured:
[1] = target: Estrogen receptor beta (Homo sapiens) (UniProt Q92731); assay: Agonist activity at gal-ERbeta expressed in african green monkey CV1 cells co-expressing MH100 up to 10 uM by luciferase reporter gene assay relative to control; type: functional, cell-based; settings: CV-1
[2] = target: T1, Androgen receptor (Homo sapiens) (UniProt P10275); assay: Agonist activity at human gal-AR expressed in african green monkey CV1 cells co-expressing MH100 with pGRIP1 co-factor by luciferase reporter gene assay; type: functional, cell-based; settings: CV-1
T1 sequence (whole entry): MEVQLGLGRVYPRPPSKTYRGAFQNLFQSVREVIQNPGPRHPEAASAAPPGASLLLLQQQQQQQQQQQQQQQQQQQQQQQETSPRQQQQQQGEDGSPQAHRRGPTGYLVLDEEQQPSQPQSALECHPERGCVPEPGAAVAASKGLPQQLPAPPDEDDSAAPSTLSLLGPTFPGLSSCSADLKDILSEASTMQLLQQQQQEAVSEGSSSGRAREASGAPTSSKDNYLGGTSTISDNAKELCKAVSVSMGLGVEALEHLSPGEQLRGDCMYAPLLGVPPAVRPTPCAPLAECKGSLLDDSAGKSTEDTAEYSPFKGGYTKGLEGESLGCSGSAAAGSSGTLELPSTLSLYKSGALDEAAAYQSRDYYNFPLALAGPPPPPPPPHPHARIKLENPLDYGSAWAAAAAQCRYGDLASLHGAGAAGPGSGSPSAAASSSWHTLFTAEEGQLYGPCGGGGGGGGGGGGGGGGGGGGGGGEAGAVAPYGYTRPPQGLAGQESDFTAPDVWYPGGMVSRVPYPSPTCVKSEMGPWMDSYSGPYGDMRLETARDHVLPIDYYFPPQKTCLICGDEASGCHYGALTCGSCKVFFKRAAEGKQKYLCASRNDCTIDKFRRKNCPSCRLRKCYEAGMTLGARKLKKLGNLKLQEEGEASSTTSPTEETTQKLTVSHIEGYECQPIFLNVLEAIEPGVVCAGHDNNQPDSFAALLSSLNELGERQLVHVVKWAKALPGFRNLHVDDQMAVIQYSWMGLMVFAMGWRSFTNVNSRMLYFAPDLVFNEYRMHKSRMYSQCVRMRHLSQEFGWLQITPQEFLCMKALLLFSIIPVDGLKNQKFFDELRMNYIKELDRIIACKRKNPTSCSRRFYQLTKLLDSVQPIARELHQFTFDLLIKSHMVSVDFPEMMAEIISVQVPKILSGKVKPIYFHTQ

[3] = target: Steroid hormone receptor ERR2 (Homo sapiens) (UniProt O95718); assay: Antagonist activity at ERRbeta expressed in african green monkey CV1 cells by luciferase reporter gene assay; type: functional, cell-based; settings: CV-1
Steroid hormone receptor ERR2 (Homo sapiens), sequence (O95718 whole entry): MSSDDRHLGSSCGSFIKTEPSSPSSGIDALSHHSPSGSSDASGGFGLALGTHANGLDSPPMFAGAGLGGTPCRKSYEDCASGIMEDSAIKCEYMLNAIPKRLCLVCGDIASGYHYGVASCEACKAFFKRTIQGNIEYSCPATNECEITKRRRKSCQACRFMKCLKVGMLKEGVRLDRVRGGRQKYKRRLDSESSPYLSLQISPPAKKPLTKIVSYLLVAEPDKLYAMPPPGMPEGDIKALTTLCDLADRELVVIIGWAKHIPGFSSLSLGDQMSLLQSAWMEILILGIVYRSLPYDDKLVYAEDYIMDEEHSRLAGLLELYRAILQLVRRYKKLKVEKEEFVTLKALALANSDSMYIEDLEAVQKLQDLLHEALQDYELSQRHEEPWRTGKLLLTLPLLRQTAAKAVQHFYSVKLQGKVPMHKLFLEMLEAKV

[4] = target: Oxysterols receptor LXR-alpha (Homo sapiens) (UniProt Q13133); assay: Agonist activity at LXRalpha expressed in african green monkey CV1 cells co-expressing LXRE up to 10 uM by luciferase reporter gene assay relative to control; type: functional, cell-based; settings: CV-1
Oxysterols receptor LXR-alpha (Homo sapiens), sequence (Q13133 whole entry): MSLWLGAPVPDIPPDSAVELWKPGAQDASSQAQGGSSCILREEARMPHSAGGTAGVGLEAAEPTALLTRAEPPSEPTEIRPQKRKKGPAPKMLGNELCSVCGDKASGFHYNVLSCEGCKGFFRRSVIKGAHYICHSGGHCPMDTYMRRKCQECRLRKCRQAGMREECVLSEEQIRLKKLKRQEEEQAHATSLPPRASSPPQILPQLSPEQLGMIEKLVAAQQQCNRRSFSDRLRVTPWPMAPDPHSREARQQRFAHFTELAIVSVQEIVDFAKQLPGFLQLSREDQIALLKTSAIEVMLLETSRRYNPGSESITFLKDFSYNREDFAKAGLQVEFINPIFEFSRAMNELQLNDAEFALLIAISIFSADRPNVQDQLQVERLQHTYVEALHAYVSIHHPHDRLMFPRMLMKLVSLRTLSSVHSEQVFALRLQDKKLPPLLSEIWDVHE

[5] = system: Mus musculus; assay: Reduction of plasma triglyceride level in C57BL/6 mouse at 10 mg/kg, po administered for 7 days measured after 3 hrs; type: ADME, organism-based; set-up: dose 10 mg/kg, route oral; settings: in vivo
[6] = target: Glucocorticoid receptor (Homo sapiens, UniProt P04150); assay: Antagonist activity at gal-GR expressed in african green monkey CV1 cells co-expressing MH100 by luciferase reporter gene assay; type: functional, cell-based, CV-1
Glucocorticoid receptor, sequence (P04150 whole entry): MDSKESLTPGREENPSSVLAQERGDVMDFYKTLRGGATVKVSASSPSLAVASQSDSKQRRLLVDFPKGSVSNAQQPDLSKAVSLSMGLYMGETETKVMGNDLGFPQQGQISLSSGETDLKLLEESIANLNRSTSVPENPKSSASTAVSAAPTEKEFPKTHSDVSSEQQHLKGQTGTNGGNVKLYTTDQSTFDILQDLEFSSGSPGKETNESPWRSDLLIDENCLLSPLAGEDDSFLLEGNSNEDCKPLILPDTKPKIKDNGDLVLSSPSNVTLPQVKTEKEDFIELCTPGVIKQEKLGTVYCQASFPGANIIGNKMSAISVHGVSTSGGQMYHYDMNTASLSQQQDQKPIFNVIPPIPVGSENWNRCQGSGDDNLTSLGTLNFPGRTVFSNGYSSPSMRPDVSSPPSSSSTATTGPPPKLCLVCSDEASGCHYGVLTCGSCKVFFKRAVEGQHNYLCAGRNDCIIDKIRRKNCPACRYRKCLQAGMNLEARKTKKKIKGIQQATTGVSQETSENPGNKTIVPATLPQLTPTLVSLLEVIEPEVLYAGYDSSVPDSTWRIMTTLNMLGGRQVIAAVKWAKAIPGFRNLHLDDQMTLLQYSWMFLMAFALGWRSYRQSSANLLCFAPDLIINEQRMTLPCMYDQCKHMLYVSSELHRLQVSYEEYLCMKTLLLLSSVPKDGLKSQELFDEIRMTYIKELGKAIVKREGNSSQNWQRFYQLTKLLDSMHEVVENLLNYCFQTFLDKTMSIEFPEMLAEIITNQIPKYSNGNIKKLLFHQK

[7] = target: T2, Mineralocorticoid receptor (Homo sapiens) (UniProt P08235); assay: Agonist activity at gal-MR expressed in african green monkey CV1 cells co-expressing MH100 up to 10 uM by luciferase reporter gene assay relative to control; type: functional, cell-based; settings: CV-1
T2 sequence (whole entry): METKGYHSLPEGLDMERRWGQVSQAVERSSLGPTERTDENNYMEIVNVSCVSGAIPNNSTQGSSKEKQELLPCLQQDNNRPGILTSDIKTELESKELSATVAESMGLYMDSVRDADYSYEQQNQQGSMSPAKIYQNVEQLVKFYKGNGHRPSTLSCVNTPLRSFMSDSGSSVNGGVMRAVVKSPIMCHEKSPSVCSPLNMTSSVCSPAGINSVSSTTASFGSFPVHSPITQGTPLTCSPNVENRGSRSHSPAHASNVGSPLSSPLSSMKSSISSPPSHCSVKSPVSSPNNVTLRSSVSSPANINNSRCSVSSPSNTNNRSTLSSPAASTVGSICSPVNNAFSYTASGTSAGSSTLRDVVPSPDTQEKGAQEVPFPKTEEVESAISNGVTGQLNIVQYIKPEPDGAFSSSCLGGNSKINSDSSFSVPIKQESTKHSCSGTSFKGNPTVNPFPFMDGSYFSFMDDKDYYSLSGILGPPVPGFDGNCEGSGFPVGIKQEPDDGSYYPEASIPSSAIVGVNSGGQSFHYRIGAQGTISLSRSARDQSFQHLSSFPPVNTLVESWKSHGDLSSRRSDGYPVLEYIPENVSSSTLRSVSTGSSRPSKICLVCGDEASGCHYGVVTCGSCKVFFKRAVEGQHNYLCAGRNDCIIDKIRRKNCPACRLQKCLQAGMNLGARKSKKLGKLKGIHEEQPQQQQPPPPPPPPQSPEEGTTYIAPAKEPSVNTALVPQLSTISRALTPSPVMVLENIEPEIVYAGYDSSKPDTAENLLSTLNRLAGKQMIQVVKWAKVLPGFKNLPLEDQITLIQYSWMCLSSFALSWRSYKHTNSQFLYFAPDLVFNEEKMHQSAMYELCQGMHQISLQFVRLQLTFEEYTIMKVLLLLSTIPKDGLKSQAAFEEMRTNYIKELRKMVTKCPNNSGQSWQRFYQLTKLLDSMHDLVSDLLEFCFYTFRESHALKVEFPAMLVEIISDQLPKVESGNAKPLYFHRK

[8] = Cmax in CD rat at 3 mg/kg, iv; type: ADME, organism-based; set-up: dose 3 mg/kg, route intravenous; settings: in vivo
[9] = target: T3, Estrogen receptor (Homo sapiens) (UniProt P03372); assay: Agonist activity at gal-ERalpha expressed in african green monkey CV1 cells co-expressing MH100 by luciferase reporter gene assay; type: functional, cell-based; settings: CV-1
T3 sequence (whole entry): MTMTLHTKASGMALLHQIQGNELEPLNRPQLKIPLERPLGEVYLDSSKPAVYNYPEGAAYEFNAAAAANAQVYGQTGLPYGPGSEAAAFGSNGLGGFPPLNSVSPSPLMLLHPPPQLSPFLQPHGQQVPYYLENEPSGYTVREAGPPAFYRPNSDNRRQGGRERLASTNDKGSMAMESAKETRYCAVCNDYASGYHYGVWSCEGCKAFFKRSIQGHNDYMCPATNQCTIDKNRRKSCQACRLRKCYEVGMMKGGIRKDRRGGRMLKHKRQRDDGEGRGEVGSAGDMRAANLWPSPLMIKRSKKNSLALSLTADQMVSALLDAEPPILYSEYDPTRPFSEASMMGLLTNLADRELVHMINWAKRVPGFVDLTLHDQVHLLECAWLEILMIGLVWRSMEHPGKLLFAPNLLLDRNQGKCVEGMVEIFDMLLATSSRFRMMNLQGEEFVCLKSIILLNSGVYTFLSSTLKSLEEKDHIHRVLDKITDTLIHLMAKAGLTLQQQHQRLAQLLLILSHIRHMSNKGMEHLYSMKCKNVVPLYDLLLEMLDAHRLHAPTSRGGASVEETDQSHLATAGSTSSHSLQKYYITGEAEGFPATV

Estrogen receptor beta (Homo sapiens), sequence (Q92731 whole entry): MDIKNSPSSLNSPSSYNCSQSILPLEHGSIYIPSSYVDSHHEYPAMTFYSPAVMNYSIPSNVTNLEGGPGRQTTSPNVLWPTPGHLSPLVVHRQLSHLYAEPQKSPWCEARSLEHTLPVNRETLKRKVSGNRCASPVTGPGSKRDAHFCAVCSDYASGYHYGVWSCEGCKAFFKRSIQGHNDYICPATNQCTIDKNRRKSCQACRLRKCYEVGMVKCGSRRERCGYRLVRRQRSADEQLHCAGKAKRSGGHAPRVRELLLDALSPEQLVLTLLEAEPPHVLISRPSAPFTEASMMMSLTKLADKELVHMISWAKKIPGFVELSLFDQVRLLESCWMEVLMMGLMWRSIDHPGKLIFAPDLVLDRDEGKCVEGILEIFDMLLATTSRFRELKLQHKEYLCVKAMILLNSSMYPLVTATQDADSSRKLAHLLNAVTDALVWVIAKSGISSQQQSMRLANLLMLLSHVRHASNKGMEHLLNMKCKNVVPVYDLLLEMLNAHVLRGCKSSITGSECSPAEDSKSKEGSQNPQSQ

**Q.** For CC(C)OC(=O)C1=CN(C(=O)c2ccc(F)c(F)c2)CC(C)(C)c2c1[nH]c1ccccc21 [TUROFEXORATE ISOPROPYL], which Activity [1] is on record?
**A.** inactive

**Q.** What about the Activity [2] of the same compound?
**A.** inactive

**Q.** What about the Activity [3] of the same compound?
**A.** inactive

**Q.** What about the Activity [4] of the same compound?
**A.** inactive

**Q.** What about the Activity [5] of the same compound?
**A.** 62 mg/dL

**Q.** What about the IC50 [6] of the same compound?
**A.** 10 µM

**Q.** And the Activity [7]?
**A.** inactive

**Q.** And the Cmax [8]?
**A.** 30.5 µM

**Q.** And the Activity [9]?
**A.** inactive
